This assay relates to microorganisms on surfaces of a surgical center. Put plainly: Efficiency of disinfectants: reduction of microbial counts on surgical center surfaces. The settings on record: post- vs pre-disinfection; same letter = no significant difference (p < 0.05).

`OCl` [0.5% sodium hypochlorite, sodium hypochlorite]: the “Reduction of counts microbial (%)” value is given as 61 b %.

With `CC(C)O` [70% isopropanol, isopropyl alcohol], the “Reduction of counts microbial (%)” value worked out at 87 a %.

The values above are taken from patent US20230226003A1, “NATURAL ANTIBACTERIAL AND ANTIVIRAL BIOLOGICAL COMPOSITIONS, COMPOUNDS, METHOD FOR OBTAINING SAME, AND USE THEREOF” (BEEOTEC HOLDING S/A, priority 2020, published 2023).
